Measurements: patent US20240059729A1, “MULTIFUNCTIONAL CYCLIC DINUCLEOTIDE AND USE THEREOF” (TYLIGAND BIOSCIENCE (SHANGHAI) LIMITED, priority 2020, published 2024)
Structures can show the parent of a compound that is named as a salt.

Each molecule was assayed on CT26 cells (assay: Inhibition of proliferation of CT26 cells (CellTiter-Glo)). Conditions: Mus musculus, 120 hours, CellTiter-Glo.
Type: cell-based, mouse
Experimental: CT26 cell is a mouse colorectal cancer cell line. This assay used the CellTiter-Glo Luminescence Cell Vitality Assay kit from Promega to evaluate the inhibitory activity of the compounds on the proliferation of CT26 cells.
In thawing the CT26 cells (ATCC #CRL-2638), a cell freezing tube was quickly shaken in a water bath at 37° C. to thaw the cells within 1 min. The thawed cell suspension was taken and evenly mixed with DMEM medium (GE, Cat #SH30243.01) containing 10% FBS (GIBCO, Cat #10099-141), centrifuged for 5 min at 1000 rpm, and the supernatant was discarded. The cell pellet was resuspended in 5 mL of the complete medium (DMEM medium containing 10% FBS), placed into a cell culture flask with a bottom area of 25 cm^2, and incubated in a cell incubator at 37° C., 5% CO2 and 95% humidity. When the cell confluence reached 70%˜80%, the cells were passaged. All the cells in the culture flask were transferred to a 15 mL centrifuge tube, centrifuged for 5 min at 1000 rpm, and the supernatant was discarded. 5 mL of fresh complete medium was added to re-suspend the cell pellet, 1 mL of which was taken to place in a cell culture flask with a bottom area of 25 cm^2, supplemented with 4 mL of fresh complete medium for further incubation. When the cell confluence reached 70%-80% again, plating was conducted following the procedure of cell passage, retaining 1/5 cell suspension for further inculation and remaining 4/5 of the cell suspension in a 15 mL centrifuge tube.
The cell suspension was centrifuged to discard the old culture medium, washed once using DMEM medium (serum-free), and centrifuged to remove the supernatant. The cells were then re-suspended in DMEM medium (serum-free). Cell viability was then detected by Trypan blue exclusion test and to be used for plating when the cell viability was confirmed to be more than 95%. A cell suspension with a density of 1.1×10^4 viable cells/mL was prepared using DMEM medium (serum-free), and 90 μL of the cell suspension was added to a 96-well 96-well transparent flat-bottomed black-walled cell culture plate (Corning, Cat #3603) so that the cell density in the plate was 1000 viable cells/well. A control group containing no cells, no compound, and complete medium only (i.e., a culture medium control), and a control group containing no compound but cells (i.e., a cell control) were set. The cell plates were placed in a cell incubator overnight.
A 10 mM stock solution of the compounds in DMSO was first serially diluted at 3.16-fold with DMSO (Sigma, Cat #D2650) to the 9th concentration, and the 10th concentration was set as DMSO control (compound-free). Then, the DMSO solutions containing different concentrations of the compounds were diluted at 10-fold with PBS (Solarbio, Cat #P1020) so that the DMSO content in each compound solution of various concentrations was 10%. Finally, 10 μL of each of such solutions was added into corresponding cell culture plate to provide an initial compound concentration of 100 μM, with the dilution fold of adjacent concentrations being 3.16 and the DMSO content in the cell culture plate being 1%. The cell plate was placed in a cell incubator for further 120 hours.
After 120 hours, the CellTiter-Glo reagent (Promega, Cat #G7572) was thawed and the plates were equilibrated at room temperature for 30 min. 100 uL of CellTiter-Glo was added to each well of the plate, and the cells were lysed thoroughly by shaking on an orbital shaker for 5 min. The plates were placed at room temperature for 20 min to stabilize the luminescence signal, and the luminescence value of each well was scanned at full wavelength with a multifunctional microplate reader (Molecular Devices, Spectramax M3). […]

`Nc1ncnc2c1ncn2[C@@H]1O[C@@H]2CO[P@@](=O)(S)OC3C(F)[C@H](n4cnc5c(N)nc(Cl)nc54)O[C@@H]3CO[P@@](=O)(S)OC2C1O` (stereo partly drawn) [Example 7, (3′,3′)-cyclo-(Rp,Rp)-[3′-O-phosphorothioate-diester-adenosine]-[3′-O-phosphorothioate-diester-2-chloro-2′-deoxy-2′-fluoro-beta-adenosine] diammonium salt] and `Nc1nc(Cl)nc2c1ncn2[C@H]1CC2O[P@](=O)(S)OC[C@H]3O[C@@H](n4cnc5c(N)nc(Cl)nc54)CC3O[P@](=O)(S)OC[C@H]2O1` (some centres unmarked) [Example 2, (3′,3′)-cyclo-(Rp,Rp)-bis-[3′-O-phosphorothioate-diester-2-chloro-2′-deoxyadenosine]] fall in the same range of IC50: 1000 to 10000 nM for the first, 1000 to 10000 nM for the second.

`Nc1nc(Cl)nc2c1ncn2[C@@H]1O[C@H](CO)[C@@H](O)[C@@H]1F` [Clofarabine—, clofarabine, reference compound] and `Nc1nc(Cl)nc2c1ncn2[C@H]1C[C@H](O)[C@@H](CO)O1` [Cladribine, cladribine, reference compound] cannot be ordered by IC50: less than 1000 nM for the first, less than 1000 nM for the second.

`CCCC(CCC)C(=O)Nc1ccn([C@@H]2O[C@H](CO)[C@@H](O)C2(F)F)c(=O)n1` [LY2334737, N4-(2-propylpentanoyl)-2′-deoxy-2′,2′-difluorocytidine, reference compound] gave an IC50 of 1000 to 10000 nM.
